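Test compounds were applied to cells in 96-well plates for 48 hours at 5 doses. GI50 = concentration required for 50% inhibition of growth.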 Calls of active or inactive are those of the source. Cut-off read from the data, not from the text of the source: active = GI50 up to about 1.1 µM and inactive = higher.
Tests used:
Test in all cases: NCI-60 cell line screen, 48 h
EKVX = test system: EKVX
MDA-N = test system: MDA-N
BT-549 = test system: BT-549
SF-295 = test system: SF-295
PC-3 = test system: PC-3
SN12C = test system: SN12C
Hs-578T = test system: Hs-578T
A549 = test system: A549
HCT-15 = test system: HCT-15
UACC-62 = test system: UACC-62
HCT-116 = test system: HCT-116
COLO 205 = test system: COLO 205
SF-539 = test system: SF-539
ACHN = test system: ACHN
SW-620 = test system: SW-620
NCI-H226 = test system: NCI-H226
SR = test system: SR
OVCAR-4 = test system: OVCAR-4
IGROV-1 = test system: IGROV-1
TK-10 = test system: TK-10
U-251 = test system: U-251
A498 = test system: A498
SNB-75 = test system: SNB-75
T47D = test system: T47D
SK-MEL-28 = test system: SK-MEL-28
NCI-H23 = test system: NCI-H23
SK-MEL-5 = test system: SK-MEL-5
MOLT-4 = test system: MOLT-4
HL-60 = test system: HL-60
CCRF-CEM = test system: CCRF-CEM
HT-29 = test system: HT-29
KM12 = test system: KM12
DU-145 = test system: DU-145
MCF7 = test system: MCF7
OVCAR-8 = test system: OVCAR-8
OVCAR-5 = test system: OVCAR-5
UACC-257 = test system: UACC-257
HOP-62 = test system: HOP-62
NCI-H460 = test system: NCI-H460
SK-OV-3 = test system: SK-OV-3
786-0 = test system: 786-0
NCI-H522 = test system: NCI-H522
SNB-19 = test system: SNB-19
HCC 2998 = test system: HCC 2998
K562 = test system: K562
OVCAR-3 = test system: OVCAR-3
CAKI-1 = test system: CAKI-1
SF-268 = test system: SF-268
MDA-MB-231 = test system: MDA-MB-231
UO-31 = test system: UO-31
NCI/ADR-RES = test system: NCI/ADR-RES
RXF 393 = test system: RXF 393
RPMI-8226 = test system: RPMI-8226
HOP-92 = test system: HOP-92
M14 = test system: M14
MDA-MB-435 = test system: MDA-MB-435
LOX IMVI = test system: LOX IMVI
SK-MEL-2 = test system: SK-MEL-2

For `C[C@H](CSC(=O)c1ccccc1)C(=O)N1c2ccccc2C[C@H]1C(=O)O`, the GI50 (EKVX) was > 100 µM (inactive), the GI50 (MDA-N) was > 100 µM (inactive) and the GI50 (BT-549) was > 100 µM (inactive). The GI50 (SF-295) was > 100 µM (inactive), the GI50 (PC-3) was > 100 µM (inactive) and the GI50 (SN12C) was > 100 µM (inactive). The GI50 (Hs-578T) was > 100 µM (inactive), the GI50 (A549) was > 100 µM (inactive) and the GI50 (HCT-15) was 30.5 µM. The GI50 (UACC-62) was > 100 µM (inactive), the GI50 (HCT-116) was 41.2 µM (inactive) and the GI50 (COLO 205) was 63 µM (inactive). The GI50 (SF-539) was > 100 µM (inactive), the GI50 (ACHN) was > 100 µM (inactive) and the GI50 (SW-620) was 35.2 µM (inactive). The GI50 (NCI-H226) was > 100 µM (inactive), the GI50 (SR) was 61.1 µM (inactive) and the GI50 (OVCAR-4) was > 100 µM (inactive). For the same molecule, the GI50 (IGROV-1) was > 100 µM (inactive), the GI50 (TK-10) was > 100 µM (inactive) and the GI50 (U-251) was > 100 µM (inactive). The GI50 (A498) was > 100 µM (inactive), the GI50 (SNB-75) was 35.3 µM (inactive) and the GI50 (T47D) was > 100 µM (inactive). For the same molecule, the GI50 (SK-MEL-28) was > 100 µM (inactive), the GI50 (NCI-H23) was > 100 µM (inactive) and the GI50 (SK-MEL-5) was 67.8 µM (inactive). The GI50 (MOLT-4) was 75.7 µM (inactive), the GI50 (HL-60) was 33.7 µM (inactive) and the GI50 (CCRF-CEM) was 32.1 µM (inactive). The GI50 (HT-29) was 47.2 µM (inactive), the GI50 (KM12) was > 10 µM (inactive) and the GI50 (DU-145) was > 100 µM (inactive). For the same molecule, the GI50 (MCF7) was 46 µM (inactive), the GI50 (OVCAR-8) was > 100 µM (inactive) and the GI50 (OVCAR-5) was > 100 µM (inactive). For the same molecule, the GI50 (UACC-257) was > 100 µM (inactive), the GI50 (HOP-62) was > 100 µM (inactive) and the GI50 (NCI-H460) was > 10 µM (inactive). The GI50 (SK-OV-3) was > 100 µM (inactive), the GI50 (786-0) was > 10 µM (inactive) and the GI50 (NCI-H522) was 30.4 µM (inactive). For the same molecule, the GI50 (SNB-19) was > 100 µM (inactive), the GI50 (HCC 2998) was 91.8 µM (inactive) and the GI50 (K562) was 17.5 µM (inactive). For the same molecule, the GI50 (OVCAR-3) was > 100 µM (inactive), the GI50 (CAKI-1) was > 100 µM (inactive) and the GI50 (SF-268) was > 100 µM (inactive). For the same molecule, the GI50 (MDA-MB-231) was > 100 µM (inactive), the GI50 (UO-31) was 86.3 µM (inactive) and the GI50 (NCI/ADR-RES) was 50.6 µM (inactive).
With `c1ccc(Cc2nc(Cc3n[nH]c(Cc4ccccc4)n3)n[nH]2)cc1` the GI50 (EKVX) was > 100 µM (inactive), the GI50 (RXF 393) was > 100 µM (inactive) and the GI50 (MDA-N) was > 100 µM (inactive). The GI50 (BT-549) was > 100 µM (inactive), the GI50 (SF-295) was > 100 µM (inactive) and the GI50 (RPMI-8226) was > 100 µM (inactive). For the same molecule, the GI50 (PC-3) was > 100 µM (inactive), the GI50 (SN12C) was > 100 µM (inactive) and the GI50 (Hs-578T) was 11.8 µM (inactive). For the same molecule, the GI50 (A549) was > 100 µM (inactive), the GI50 (HCT-15) was > 100 µM and the GI50 (UACC-62) was > 100 µM (inactive). The GI50 (HCT-116) was > 100 µM (inactive), the GI50 (COLO 205) was > 100 µM (inactive) and the GI50 (SF-539) was > 100 µM (inactive). For the same molecule, the GI50 (ACHN) was > 100 µM (inactive), the GI50 (SW-620) was > 100 µM (inactive) and the GI50 (SR) was > 100 µM (inactive). The GI50 (OVCAR-4) was > 100 µM (inactive), the GI50 (IGROV-1) was > 100 µM (inactive) and the GI50 (TK-10) was > 100 µM (inactive). For the same molecule, the GI50 (U-251) was > 100 µM (inactive), the GI50 (SNB-75) was > 100 µM (inactive) and the GI50 (SK-MEL-28) was > 100 µM (inactive). For the same molecule, the GI50 (NCI-H23) was > 100 µM (inactive), the GI50 (SK-MEL-5) was > 100 µM (inactive) and the GI50 (MOLT-4) was > 100 µM (inactive). For the same molecule, the GI50 (HOP-92) was > 100 µM (inactive), the GI50 (CCRF-CEM) was > 100 µM (inactive) and the GI50 (HT-29) was > 100 µM (inactive). For the same molecule, the GI50 (KM12) was > 100 µM (inactive), the GI50 (DU-145) was > 100 µM (inactive) and the GI50 (MCF7) was > 100 µM (inactive). The GI50 (OVCAR-8) was > 100 µM (inactive), the GI50 (OVCAR-5) was > 100 µM (inactive) and the GI50 (M14) was > 100 µM (inactive). The GI50 (UACC-257) was > 100 µM (inactive), the GI50 (HOP-62) was > 100 µM (inactive) and the GI50 (MDA-MB-435) was > 100 µM (inactive). For the same molecule, the GI50 (LOX IMVI) was > 100 µM (inactive), the GI50 (SK-OV-3) was > 100 µM (inactive) and the GI50 (786-0) was > 100 µM (inactive). For the same molecule, the GI50 (SK-MEL-2) was > 100 µM (inactive), the GI50 (NCI-H522) was > 100 µM (inactive) and the GI50 (SNB-19) was > 100 µM (inactive). The GI50 (HCC 2998) was > 100 µM (inactive), the GI50 (K562) was > 100 µM (inactive) and the GI50 (OVCAR-3) was > 100 µM (inactive). The GI50 (SF-268) was > 100 µM (inactive), the GI50 (MDA-MB-231) was > 100 µM (inactive) and the GI50 (UO-31) was > 100 µM (inactive). For the same molecule, the GI50 (NCI/ADR-RES) was > 100 µM (inactive).

Reference: ChEMBL document CHEMBL1201862, “PubChem BioAssay data set” (2004)
